Columns and labels:
[1] = 101.33 kPa, Liquid; for viscosity: Capillary tube (Ostwald / Ubbelohde) method
[2] = molar heat capacity at constant pressure; conditions: 101.33 kPa, Liquid, Small sample (50 mg) DSC
[3] = refractive index (Na D-line) (dimensionless); conditions: 101.33 kPa, Liquid, Standard Abbe refractometry

CC1CCCO1 (configuration not stated) [2-methyltetrahydrofuran]
Conditions | mass density, [1] [kg/m3] | molar heat capacity at constant pressure, [2] [J/K/mol] | refractive index, [3] | viscosity, [1] [mPa·s]
293.15 K | 852.95 | 155.3 | 1.4085 | 0.492
303.15 K | 842.8 | 158.6 | 1.4017 | 0.443
313.15 K | 832.38 | 162.1 | 1.3959 | 0.416

— the NIST ThermoML archive (doi:10.1021/je7003066)
